For six compounds, IC50 and Ki results are on record in ChEMBL document CHEMBL1909046, “DrugMatrix in vitro pharmacology data”.

Test [1] has as its target Vascular endothelial growth factor receptor 1 (Homo sapiens, UniProt P17948). The test can be described thus: biochemical. Format: cell-based, HUVEC. The note with it: huvec. Further: in other assays of this panel Not Active means under 50% inhibition at 10 µM.
For test [2], the target named is Prostaglandin G/H synthase 1 (Homo sapiens, UniProt P23219). The test can be described thus: biochemical. The test is classed as tissue-based, Platelet. The note with it: platelet.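 Further: inhibition of COX-1 enzyme activity, with arachidonic acid supplied as substrate; in other assays of this panel Not Active means under 50% inhibition at 10 µM.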
The nature of test [3]: DRUGMATRIX: GABAA, Flunitrazepam, Central radioligand binding (ligand: [3H] Flunitrazepam). The test is classed as cell membranes, Rattus norvegicus, Wistar, Brain, Membrane. The note with it: Not Active = under 50% inhibition at 10 µM.
Test [4] can be described thus: DRUGMATRIX: Glutamate, NMDA, Agonism radioligand binding (ligand: [3H] CGP-39653). Format: cell membranes, Rattus norvegicus, Wistar, Cerebral cortex, Membrane. The note with it: Not Active = under 50% inhibition at 10 µM.
A short description of test [5]: DRUGMATRIX: Phorbol Ester radioligand binding (ligand: [3H] PDBu). The settings on record: Not Active = under 50% inhibition at 10 µM. The test is classed as cell membranes, Mus musculus, ICR, Brain, Membrane.
Test [6] deals with cGMP-specific 3',5'-cyclic phosphodiesterase (Homo sapiens, UniProt O76074). The test can be described thus: DRUGMATRIX: Phosphodiesterase PDE5 enzyme inhibition (substrate: [3H]cGMP + cGMP). Format: tissue-based. The note with it: platelet; Not Active = under 50% inhibition at 10 µM.
Test [7] in a line: DRUGMATRIX: Platelet-Derived Growth Factor (PDGF) radioligand binding (ligand: [125I] PDGF). The note with it: nih3t3; Not Active = under 50% inhibition at 10 µM. Format: cell-based.
In test [8] the target is T1, Interstitial collagenase (Homo sapiens, UniProt P03956).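 Further: MMP-1 enzyme inhibition assay using a peptide substrate; in other assays of this panel Not Active means under 50% inhibition at 10 µM.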
T1 sequence (P03956 whole entry): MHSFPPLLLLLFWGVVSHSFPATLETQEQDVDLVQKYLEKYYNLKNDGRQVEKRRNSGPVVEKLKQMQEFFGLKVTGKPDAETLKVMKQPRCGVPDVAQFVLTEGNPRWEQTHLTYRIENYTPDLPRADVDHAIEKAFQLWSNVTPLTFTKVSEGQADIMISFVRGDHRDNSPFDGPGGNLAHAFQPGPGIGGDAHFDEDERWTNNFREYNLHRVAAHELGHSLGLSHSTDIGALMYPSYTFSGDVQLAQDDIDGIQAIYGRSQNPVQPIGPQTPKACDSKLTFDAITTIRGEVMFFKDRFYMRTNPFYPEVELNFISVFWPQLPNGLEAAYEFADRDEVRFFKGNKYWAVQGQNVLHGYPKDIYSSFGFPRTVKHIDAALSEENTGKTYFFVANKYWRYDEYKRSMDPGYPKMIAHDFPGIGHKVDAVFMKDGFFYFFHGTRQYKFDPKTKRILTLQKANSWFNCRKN
The test is classed as tissue-based, Rheumatoid synovial fibroblasts.

Test [9] has as its target Mitogen-activated protein kinase 3 (Homo sapiens, UniProt P27361). Kind of test: DRUGMATRIX: Protein Serine/Threonine Kinase, ERK1 enzyme inhibition (substrate: Myelin Basic Protein). The settings on record: Not Active = under 50% inhibition at 10 µM. Details: species or system Escherichia coli.

Vascular endothelial growth factor receptor 1, sequence (P17948 whole entry): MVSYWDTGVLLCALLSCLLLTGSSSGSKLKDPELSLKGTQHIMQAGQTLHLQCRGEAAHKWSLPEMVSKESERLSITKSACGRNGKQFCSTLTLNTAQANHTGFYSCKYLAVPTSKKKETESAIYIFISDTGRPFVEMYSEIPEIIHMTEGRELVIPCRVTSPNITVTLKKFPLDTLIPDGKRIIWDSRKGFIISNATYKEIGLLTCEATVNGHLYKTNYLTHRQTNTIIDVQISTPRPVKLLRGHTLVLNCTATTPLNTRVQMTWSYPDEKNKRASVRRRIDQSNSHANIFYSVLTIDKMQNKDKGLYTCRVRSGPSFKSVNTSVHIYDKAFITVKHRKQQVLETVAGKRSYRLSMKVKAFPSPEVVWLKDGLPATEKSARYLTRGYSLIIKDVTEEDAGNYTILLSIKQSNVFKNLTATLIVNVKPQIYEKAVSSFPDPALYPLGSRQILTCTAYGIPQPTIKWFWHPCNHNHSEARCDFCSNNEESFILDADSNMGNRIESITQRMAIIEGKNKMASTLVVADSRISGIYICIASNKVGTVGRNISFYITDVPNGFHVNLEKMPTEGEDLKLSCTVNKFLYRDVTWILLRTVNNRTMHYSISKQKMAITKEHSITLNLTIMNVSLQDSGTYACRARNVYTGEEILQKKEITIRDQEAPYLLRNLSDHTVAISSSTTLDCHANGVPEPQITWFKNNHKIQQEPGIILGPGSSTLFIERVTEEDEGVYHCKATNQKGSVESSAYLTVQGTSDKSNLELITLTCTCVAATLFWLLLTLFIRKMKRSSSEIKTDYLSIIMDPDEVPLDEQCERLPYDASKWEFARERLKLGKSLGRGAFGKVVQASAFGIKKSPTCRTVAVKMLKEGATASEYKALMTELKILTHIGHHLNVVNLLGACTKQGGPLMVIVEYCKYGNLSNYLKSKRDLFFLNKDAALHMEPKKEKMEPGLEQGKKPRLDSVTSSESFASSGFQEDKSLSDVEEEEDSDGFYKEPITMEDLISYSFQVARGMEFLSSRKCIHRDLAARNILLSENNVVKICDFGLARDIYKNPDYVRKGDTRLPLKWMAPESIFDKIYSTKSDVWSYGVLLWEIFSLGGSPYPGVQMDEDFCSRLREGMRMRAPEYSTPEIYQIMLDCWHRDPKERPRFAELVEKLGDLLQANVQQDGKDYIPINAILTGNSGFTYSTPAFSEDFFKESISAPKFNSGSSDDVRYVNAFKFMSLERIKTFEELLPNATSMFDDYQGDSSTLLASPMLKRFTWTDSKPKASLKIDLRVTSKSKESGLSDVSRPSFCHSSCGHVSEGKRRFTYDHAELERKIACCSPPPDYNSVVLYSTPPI
Mitogen-activated protein kinase 3, sequence (P27361 whole entry): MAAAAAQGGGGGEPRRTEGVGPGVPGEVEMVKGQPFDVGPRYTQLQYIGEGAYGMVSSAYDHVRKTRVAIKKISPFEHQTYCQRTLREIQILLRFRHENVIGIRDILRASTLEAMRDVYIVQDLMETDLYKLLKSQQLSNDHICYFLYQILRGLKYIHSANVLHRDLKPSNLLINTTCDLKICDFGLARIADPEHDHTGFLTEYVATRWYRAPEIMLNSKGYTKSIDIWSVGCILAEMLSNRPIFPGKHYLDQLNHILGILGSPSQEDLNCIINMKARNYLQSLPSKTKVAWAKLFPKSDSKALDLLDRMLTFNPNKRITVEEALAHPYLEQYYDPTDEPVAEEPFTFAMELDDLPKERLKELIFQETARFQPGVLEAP
Prostaglandin G/H synthase 1, sequence (P23219 whole entry): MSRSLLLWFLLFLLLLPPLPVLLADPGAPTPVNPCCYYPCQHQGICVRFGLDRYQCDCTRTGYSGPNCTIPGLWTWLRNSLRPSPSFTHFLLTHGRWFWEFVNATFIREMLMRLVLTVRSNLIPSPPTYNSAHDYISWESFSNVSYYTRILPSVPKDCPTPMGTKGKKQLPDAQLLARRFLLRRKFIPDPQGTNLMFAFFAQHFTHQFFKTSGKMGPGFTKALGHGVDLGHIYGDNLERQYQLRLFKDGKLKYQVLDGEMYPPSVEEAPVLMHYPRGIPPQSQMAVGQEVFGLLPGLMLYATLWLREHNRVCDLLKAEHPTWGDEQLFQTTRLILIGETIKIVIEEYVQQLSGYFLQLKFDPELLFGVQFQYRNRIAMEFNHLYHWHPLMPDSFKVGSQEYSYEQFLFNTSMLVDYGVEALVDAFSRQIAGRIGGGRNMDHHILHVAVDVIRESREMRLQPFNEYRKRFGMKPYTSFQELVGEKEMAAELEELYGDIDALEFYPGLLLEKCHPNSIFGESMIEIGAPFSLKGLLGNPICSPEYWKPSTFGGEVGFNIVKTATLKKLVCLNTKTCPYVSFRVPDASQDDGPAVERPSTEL

The term IC50 denotes the point on the concentration scale where inhibition reaches its midpoint. `COc1ccc(CN2CCNCC2)c(OC)c1OC` [TRIMETAZIDINE]: the half-inhibitory concentration (IC50) result in test [1], in [2], in test [3], in [4], in test [5] and in test [6] was “Not Active” throughout. The half-inhibitory concentration (IC50) result in test [7], in test [8] and in [9] was “Not Active” in each case. For the same compound, the Ki result in test [3], in test [4], in [5] and in test [7] was “Not Active” each time.
For the compound `CC(=O)O[C@H]1C[C@@H]2CC[C@@H]3[C@H](CC[C@@]4(C)[C@H]3C[C@H]([N+]3(C)CCCCC3)[C@@H]4OC(C)=O)[C@@]2(C)C[C@@H]1N1CCCCC1.[Br-]` [VECURONIUM BROMIDE], the IC50 entry in [1], in [2], in test [3], in [4], in test [5] and in test [6] was “Not Active” throughout. Further, the half-inhibitory concentration (IC50) result in test [7], in test [8] and in [9] was “Not Active” in each case. Moreover, the Ki entry in test [3], in test [4], in test [5] and in [7] was “Not Active” in each case.
For `COc1cc(C(=O)NS(=O)(=O)c2ccccc2C)ccc1Cc1cn(C)c2ccc(NC(=O)OC3CCCC3)cc12` [ZAFIRLUKAST], the half-inhibitory concentration (IC50) result in [1], in [2], in test [3], in test [4], in [5] and in [6] was “Not Active” in each case. Further, the IC50 result is “Not Active” in test [7], “Not Active” in test [8] and 4.38 µM in test [9] (read-out: IC50). Besides, the Ki result in [3], in [4], in test [5] and in [7] was “Not Active” in each case.
As for `Cc1cn([C@H]2C[C@H](N=[N+]=[N-])[C@@H](CO)O2)c(=O)[nH]c1=O` [ZIDOVUDINE], the IC50 result in [1], in [2], in test [3], in test [4], in test [5] and in test [6] was “Not Active” throughout. The IC50 result in test [7], in test [8] and in test [9] was “Not Active” throughout. Also, the Ki entry in test [3], in [4], in test [5] and in [7] was “Not Active” each time.
Turning to STANNOUS FLUORIDE, the concentration for half-maximal inhibition (IC50) result in test [1], in test [2], in test [3], in test [4], in test [5] and in test [6] was “Not Active” throughout. Moreover, the IC50 entry in [7], in test [8] and in [9] was “Not Active” throughout. Besides, the Ki entry in test [1], in test [2], in test [3], in test [4], in [5] and in [6] was “Not Active” in each case. Further, the Ki result in test [7], in test [8] and in test [9] was “Not Active” in each case.
Turning to THIMEROSAL, the IC50 result in [1], in test [2], in test [3], in test [4], in test [5] and in [6] was “Not Active” each time. Further, the half-maximal inhibitory concentration (IC50) entry was “Not Active” in test [7], “Not Active” in [8] and 0.774 µM in test [9] (read-out: IC50). The Ki result in test [1], in test [2], in test [3], in test [4], in [5] and in test [6] was “Not Active” each time. Moreover, the Ki result in test [7] and in test [8] was “Not Active” throughout.
